# Test results from patent US9790541B2, “Methods and compositions for labeling nucleic acids” (President and Fellows of Harvard College, priority 2005, dated 2017).
# Experiments:
# HeLa cells [1] = test: Labeling of HeLa cells with EdU, fixed/permeabilized, stained with Xrhodamine-azide; assay type: cell-based; conditions: 1 μM EdU; cell in anaphase; labeling pulse shorter than DNA replication time
# Procedure: Ethynyl-dU (EdU) was used in tissue culture media (DMEM complemented with penicillin, streptomycin, and fetal calf serum (FCS)) ranging from 10 nM to 1 μM depending on the length of the labeling pulse. For example, if cells to be labeled were synchronized in the S phase, 100 nM to 1 μM of EdU was used for 1 to 2 hours. After labeling, the cells were washed 3 or 4 times with PBS and then tissue culture media was added.
# Staining Solution: 100 mM Tris pH 8.5 (from 2 M stock in water), 0.5 to 1 mM CuSO4 (from 1 M stock in water), 0.5 to 1 μM fluorophore-azide (from approximately 10-100 mM stock in DMSO), and water (as required) were mixed together. Ascorbic acid (from a […] stock in water) was then added to this solution to a final concentration of 50-100 mM, and the resulting staining solution is mixed thoroughly using a vortex.
# Cells can be fixed by any suitable method, e.g., cells can be fixed by aldehyde fixation (formaldehyde or glutaraldehyde), with or without permeabilization. After fixation, the cells were washed in buffer with or without non-ionic detergent (0.2-0.5% Triton X100). Before staining, cells were rinsed with buffer without detergent (PBS or TBS). The cells were then incubated in the presence of the staining solution for at least 30 minutes. Overnight staining is preferably performed in a cold room.
# HeLa cells [2] = test: Staining of EdU-labeled live cells with TMR-propyl-azide, time-lapse fluorescence microscopy; assay type: cell-based; conditions: 200 nM TMR-propyl-azide, 37° C., FIG. 7
# Procedure: Ascorbic acid (from a […] stock in water) was then added to this solution to a final concentration of 50 mM, and the resulting staining solution is mixed thoroughly.
# Washes with methanol or ethanol may be performed to obtain low background
# To facilitate live microscopic imaging, EdU-labeled cells were plated in coverslip chambers which were mounted on the heated stage (37° C.) of an inverted Nikon TE200)U microscope equipped for wide-field fluorescence microscopy as well as spinning-disk confocal fluorescence microscopy (Yokogama spinning disk confocal head from Perkin-Elmer). […] The cells were imaged by time-lapse fluorescent microscopy (one frame every 15 seconds) to detect the TMR signal accumulating in the nuclei of the EdU-labeled cells.
# [3] = system: mouse intestine and brain; test: In vivo labeling with EdU, organ sections stained with Xrhodamine-azide and Hoechst; set-up: species or system mice; conditions: 200 micrograms EdU intraperitoneally, organs harvested three days later
# Procedure: BLAB/C mice were injected with 200 micrograms of EdU intraperitoneally. Three days later, organs were harvested, fixed, embedded in paraffin and sectioned. The sections were then de-waxed and stained with Xrhadomine-azide for 5 minutes, stained with Hoechst, washed and then mounted.
# HeLa cells [4] = test: Tracing a single sister chromatid: EdU pulse, chase of two cell cycles, Alexa568-azide staining; assay type: cell-based; conditions: EdU pulse during DNA synthesis, Alexa568-azide stain
# Description: The purpose of the experiment reported herein was to label only one DNA molecule of the two that form a chromosome. That was accomplished by pulsing HeLa cells with EdU during DNA synthesis followed by a chase lasting two cell cycles, as depicted on FIG. 12. […] EdU allowed very nice resolution imaging of chromosomes in cells as shown by FIG. 13.
smiles,measurement,setting,value
"C#Cc1cn([C@H]2C[C@H](O)[C@@H](CO)O2)c(=O)[nH]c1=O [EdU, 5-ethynyl-2′ deoxyuracil]",DNA labeling by EdU in HeLa cells,HeLa cells [1],only the DNA replicating during the pulse was labeled
same,EdU detection over time (DNA staining intensity),HeLa cells [2],complete within minutes
same,EdU-labeled cells in intestine section,[3]; FIG. 8,cells with red nuclei are the cells which incorporated EdU
same,EdU-labeled cells in brain section,[3]; FIG. 10,sole EdU-labeled cell
same,"DNA molecules of a chromosome labeled, first mitosis after labeling",HeLa cells [4],both DNA molecules were labeled
same,"DNA molecules of a chromosome labeled, second mitosis",HeLa cells [4],only one DNA molecule was labeled
